From patent US20090186079A1, “Oral and overall health by negating the biological effects of bacterial lipids” (priority 2008, published 2009)

Legend:
Assay type in all cases: cell-based
[1] = test system: Human primary gingival fibroblasts; test: Detergent treatment of lipid-bearing surfaces, gingival fibroblast morphology; conditions: 0.1% detergent in PBS, 1 mL on PGDHC-coated wells, 4° C. overnight
Method: (§1) Tissue culture flasks coated with bacterial lipids were used as a model of lipid-coated biological surfaces. Human primary gingival fibroblasts were maintained in 10 mm dishes in Minimun Essential Medium (GIBCO Cat #10370) 90% with 10% heat-inactivated FCS, penicillin (100 U/ml) and streptomycin ([…]). The cells were plated onto the 6-well tissue culture plate with individual wells treated as indicated below and grown at 37° C. in a humidified atmosphere of 5% CO2 in air.
(§2) Lipid coating: The HPLC-purified P. gingivalis phosphoglycerol dihydroceramide (PGDHC) was dissolved in ethanol and added to the 6-well tissue culture plate (10 μg of lipid/well, 10.5 ng/mm^2). The solvent was allowed to evaporate in a laminar flow hood overnight leaving the lipid deposited on the culture well surface. Sham-coated control wells received only ethanol solvent.
Detergents: 3-[(3-Cholamidopropyl) dimethylammonio]-1-propanesulfonate (CHAPS), Sodium cholate (Cholate), and Tween-20 (Tween) were dissolved at the concentration of 0.1% in phosphate buffered saline (Gibco cat. 1490). 1 mL of freshly prepared […] was added to the wells coated with P. gingivalis phosphoglycerol dihydroceramide. 1 mL of PBS was added to phosphoglycerol dihydroceramide-coated well as a control. The plate was incubated at 4° C. overnight on a rocking platform.
Detergent treatment of uncoated wells had no effect on primary fibroblasts (data not shown).

[2] = test system: Human primary gingival fibroblasts; test: Collagen coating of lipid-bearing surfaces, gingival fibroblast morphology
Method: as §1, with “24-well” for “6-well”
as §2, with “dihydroceramide” for “dihydroceramide (PGDHC)”, “24-well” for “6-well”, “(2” for “(10”
Collagen coating: 0.5 mL of 50 μg/mL collagen dissolved in 0.02N Acetic acid was added to the 24-well tissue culture plate, and incubated at 4° C. overnight on a rocking platform. The collagen solution was aspirated, and the wells were washed with PBS.
The treatments were done in triplicate.

[3] = test system: peripheral blood monocytes; test: Morphological changes in peripheral blood monocytes on lipid-coated wells; conditions: treated with 1 μg/mL lipopolysaccharide, 26 hours
Method: Tissue culture flasks coated with bacterial lipids were used as a model of lipid-coated biological surfaces. The HPLC-purified P. gingivalis lipids were dissolved in ethanol and added to the tissue culture plate. The solvent was allowed to evaporate in a laminar flow hood overnight leaving the lipid deposited on the culture well surface. Sham-coated control wells received only ethanol solvent.
Peripheral blood monocytes were plated into 6-well culture dishes previously coated with the indicated lipid fractions (10 μg of lipid/well, 10.5 ng/mm^2) and were incubated for 26 hours. Culture (a) was the sham coating control, (b) was coated with the total lipid extract of P. gingivalis, (c) was coated with the P. gingivalis dihydroceramide fraction, (d) was coated with the phosphoethanolamine lipids and (e) was coated with the phosphoethanolamine dihydroceramide lipid fraction, (f) was treated with 1 μg/mL Salmonella typhimurium lipopolysaccharide.

Row | Molecule | negation of the biological effect of surface-deposited PGDHC [1] | also measured
1 | C[C@H](CCC(=O)NCCC[N+](C)(C)CCCS(=O)(=O)[O-])[C@H]1CC[C@H]2[C@@H]3[C@H](O)C[C@@H]4C[C@H](O)CC[C@]4(C)[C@H]3C[C@H](O)[C@]12C [CHAPS, 3-[(3-Cholamidopropyl)dimethylammonio]-1-propanesulfonate] | negated the biological effect of bacterial lipid | 
2 | C[C@H](CCC(=O)[O-])[C@H]1CC[C@H]2[C@@H]3[C@H](O)C[C@@H]4C[C@H](O)CC[C@]4(C)[C@H]3C[C@H](O)[C@]12C.[Na+] [sodium cholate, Sodium cholate] | negated the biological effect of bacterial lipid | 
3 | collagen |  | effect of coating alone on primary fibroblasts ([2]; 0.5 mL of 50 μg/mL collagen, wells without lipid): did not have any effect; blocking of the biological effect of surface-deposited phosphoglycerol dihydroceramide ([2]; collagen coated on top of PGDHC (2 μg of lipid/well, 10.5 ng/mm^2)): blocked the biological effect
4 | lipopolysaccharide |  | cell clustering of monocytes [3]: did not produce similar cell clustering
5 | polyoxyethylene(20) sorbitan monolaurate [Tween-20] | negated the biological effect of bacterial lipid | 
